This note sets out measurements from patent publication US6583309B1 (University of Medicine and Dentistry of New Jersey, priority 1999, dated 2003).

The target in this test is TAR RNA. Briefly: In vitro binding of resin-bound compounds to TAR RNA (OD260 of unbound RNA). On the set-up: species or system HIV. Particulars: in vitro assay; compounds of formula I on TentaGel beads incubated with TAR RNA overnight at 4° C. in TK buffer; read-out: Kd (nM), binding constants. The method, then:
Binding of compounds of formula I and V to TAR RNA was measured by evaluating their inhibition of TAR-TAT complex formation in the presence of increasing levels of the compound to be tested. The compounds of formula I were tested in an in vitro assay; the compounds of formula V were tested in an in vivo assay.
The TAR RNA used corresponds to the minimal sequence required for TAT responsiveness in vivo. This 29-residue oligonucleotide has the sequence: 5′-[…]-3′ (SEQ ID NO.: 1). TAR RNA was prepared by in vitro transcription. A “top strand” single-stranded DNA oligomer having the sequence 5′-TAATACGACTCACTATAG-3′ (SEQ ID NO.: 2) was annealed to a “bottom strand” single-stranded DNA template having the following sequence: 3′-[…]-5′ (SEQ ID NO.: 3), thereby generating a double-stranded region corresponding to a promoter sequence recognized by T7 RNA polymerase. Transcription was carried out in transcription buffer (40 mM Tris-HCl, pH 8.1, 1 mM spermidine, 0.01% Triton®X-100, 5 mM dithiothreitol, 4 mM each of ATP, GTP, CTP, and UTP at 37° C. for 4 to 5 hours. Reactions were performed in a volume of 0.02 ml containing 8 pmole of template (top strand annealed to bottom strand) and 40 to 60 units of T7 RNA polymerase. Transcription was terminated by adding an equal volume of loading buffer (9M urea, 1 mmol EDTA, 0.1M bromophenol blue in 1XTBE buffer; TBE is 45 mmol trisborate at pH 8). Product RNA was purified by electrophoresis through a denaturing 20% polyacrylamide gel containing 8M urea. RNA was extracted from the gel, precipitated, dissolved in dithylpyrocarbonate-treated water, and stored at −20° C. until used.
In vitro assay conditions: Compounds AA-DU were synthesized on TentaGel S—NH2 (4.6 mmole). All Fmoc-amino acids were purchased from Bachem (Torrance, Calif.). 1-hydroxybenzotriazole (HOBT) and diisopropylcarbodiimide (DIPCDI) were obtained from Aldrich Chemical Co., Milwalkee, Wis. Piperidine and trifluoroacetic acid were purchased from Applied Biosystems Division, Perkin-Elmer. Compounds AA-DU were synthesized manually according to standard solid-phase peptide synthesis protocols. Coupling efficiencies of residues at each step were monitored by Kaiser test. Deprotection of trimer peptides was carried out in 10% water in trifluoroacetic acid (1 mL) for 16 hours at room temperature. After filtration of solvents, the resin was washed with water (1 mL×4), DMF (1 mL×4), dichloromethane (1 mL×4), and dried under reduced pressure. The compounds attached to the resin (10 beads) were placed in an Eppendorf tube and washed with TK buffer ([…]). The beads were suspended in TK buffer ([…]) and incubated with TAR RNA ([…]) overnight at 4° C. The suspension was centrifuged and the supernatant containing unbound RNA was transferred to a cuvette for OD260 measurements. The UV absorbance was measured by a Shimadzu UV-1601 spectrometer. Equilibrium concentrations of RNA were determined from these measurements. Given that the initial concentrations of ligand and RNA are known, and assuming simple bimolecular receptor/substrate binding, dissociation constant (KD) was calculated from straightforward equations.

Usually Kd stands for the equilibrium constant for the complex coming apart. `NCCCCNCC(=O)N[C@H](CCCCN)COC(=O)N[C@@H](CCCCN)COC(N)=O` [Compound CG, Carbamic acid 6-amino-2-{6-amino-2-[2-(4-amino-butylamino)-acetylamino]-hexyloxycarbonylamino}-hexyl ester]: the Kd worked out at 603 nM.

Regarding `NCCCCCCCNCC(=O)N(CCCCN)CC(=O)N[C@@H](CCCCN)COC(N)=O` [Compound CX, Carbamic acid 6-amino-2-(2-{(4-amino-butyl)-[2-(7-amino-heptylamino)-acetyl]-amino}-acetylamino)-hexyl ester], the Kd came to 256 nM.

Turning to `NCCCCNCC(=O)N(CCCCN)CC(=O)N[C@@H](CCCCN)COC(N)=O` [Compound CY, Carbamic acid 6-amino-2-(2-{(4-amino-butyl)-[2-(4-amino-butylamino)-acetyl]-amino}-acetylamino)-hexyl ester], the Kd was found to be 523 nM.

For `NCCCCNCC(=O)N[C@@H](CCCCN)COC(=O)N[C@H](CCCCN)COC(N)=O` [Compound AP, Carbamic acid 6-amino-2-{6-amino-2-[2-(4-amino-butylamino)-acetylamino]-hexyloxycarbonylamino}-hexyl ester], the dissociation constant Kd came out at 1490 nM.

Consider `NCCCCCN(CC(=O)N[C@H](CCCCN)COC(N)=O)C(=O)CNCCCCN` [Compound BH, Carbamic acid 6-amino-2-{2-[[2-(4-amino-butylamino)-acetyl]-(5-amino-pentyl)-amino]-acetylamino}-hexyl ester], for which the dissociation constant Kd stood at 2530 nM.

Regarding `NCCCCCCCNCC(=O)N[C@H](CCCCN)COC(=O)N[C@@H](CCCCN)COC(N)=O` [Compound CF, Carbamic acid 6-amino-2-{6-amino-2-[2-(7-amino-heptylamino)-acetylamino]-hexyloxycarbonylamino}-hexyl ester], the Kd amounted to 567 nM.

Take `NCCCCCN(CC(=O)N[C@H](CCCCN)COC(N)=O)C(=O)[C@@H](N)CCCCN` [Compound BD, Carbamic acid 6-amino-2-{2-[(5-amino-pentyl)-(2,6-diamino-hexanoyl)-amino]-acetylamino}-hexyl ester]: the Kd came out at 235 nM.

In the case of `N=C(N)NCCC[C@H](N)COC(=O)N[C@@H](CCCCN)C(=O)N[C@H](CCCCN)COC(N)=O` [Compound DT, Carbamic acid 6-amino-2-[6-amino-2-(2-amino-5-guanidino-pentyloxycarbonylamino)-hexanoylamino]-hexyl ester], the Kd amounted to 215 nM.

As to `NCCCC[C@@H](N)COC(=O)N[C@H](CCCCN)COC(=O)N[C@@H](CCCCN)COC(N)=O` [Compound CB, Carbamic acid 6-amino-2-[6-amino-2-(2,6-diamino-hexyloxycarbonylamino)-hexyloxycarbonylamino]-hexyl ester], the Kd stood at 603 nM.

With `NCCCCCN(CC(=O)N[C@@H](CCCCN)COC(N)=O)C(=O)OC[C@H](N)CCCCN` [Compound DC, Carbamic acid 6-amino-2-{2-[(5-amino-pentyl)-(2,6-diamino-hexyloxycarbonyl)-amino]-acetylamino}-hexyl ester], the dissociation constant Kd stood at 5110 nM.

On to `NCCCCCCCN(CC(=O)N[C@@H](CCCCN)COC(N)=O)C(=O)CNCCCCCN` [Compound DO, Carbamic acid 6-amino-2-(2-{(7-amino-heptyl)-[2-(5-amino-pentylamino)-acetyl]-amino}-acetylamino)-hexyl ester], for which the Kd is 1040 nM.

For `NCCCCCN(CC(=O)N[C@H](CCCCN)COC(N)=O)C(=O)OC[C@@H](N)CCCCN` [Compound BB, Carbamic acid 6-amino-2-{2-[(5-amino-pentyl)-(2,6-diamino-hexyloxycarbonyl)-amino]-acetylamino}-hexyl ester], the Kd was found to be 256 nM.

`N=C(N)NCCC[C@H](N)COC(=O)N[C@@H](CCCCN)COC(=O)N[C@@H](CCCCN)COC(N)=O` [Compound CQ, Carbamic acid 6-amino-2-[6-amino-2-(2-amino-5-guanidino-pentyloxycarbonylamino)-hexyloxycarbonylamino]-hexyl ester]: the Kd turned out to be 2350 nM.

Consider `NCCCC[C@H](N)COC(=O)N(CCCCN)CC(=O)N[C@H](CCCCN)COC(N)=O` (stereo in doubt) [Compound AS, Carbamic acid 6-amino-2-{2-[(4-amino-butyl)-(2,6-diamino-hexyloxycarbonyl)-amino]-acetylamino}-hexyl ester], for which the Kd stood at 147 nM.

On to `NCCCCCCCN(CC(=O)N[C@H](CCCCN)COC(N)=O)C(=O)OC[C@H](N)CCCCN` [Compound BL, Carbamic acid 6-amino-2-{2-[(7-amino-heptyl)-(2,6-diamino-hexyloxycarbonyl)-amino]-acetylamino}-hexyl ester], for which the Kd is 718 nM.

With `NCCCC[C@H](COC(N)=O)NC(=O)[C@H](CCCCN)NC(=O)OC[C@H](N)CCC(N)=O` [Compound DU, Carbamic acid 6-amino-2-[6-amino-2-(2-amino-4-carbamoyl-butoxycarbonylamino)-hexanoylamino]-hexyl ester], the Kd was 639 nM.

With `NCCCCCCCNCC(=O)N(CCCCN)CC(=O)N[C@H](CCCCN)COC(N)=O` [Compound AX, Carbamic acid 6-amino-2-(2-{(4-amino-butyl)-[2-(7-amino-heptylamino)-acetyl]-amino}-acetylamino)-hexyl ester], the Kd is 165 nM.

With `NCCCCCNCC(=O)N(CCCCCN)CC(=O)N[C@@H](CCCCN)COC(N)=O` [Compound DF, Carbamic acid 6-amino-2-(2-{(5-amino-pentyl)-[2-(5-amino-pentylamino)-acetyl]-amino}-acetylamino)-hexyl ester], the Kd was determined as 31400 nM.

`NCCCCCCCNCC(=O)N[C@H](CCCCN)COC(=O)N[C@H](CCCCN)COC(N)=O` [Compound AF, Carbamic acid 6-amino-2-{6-amino-2-[2-(7-amino-heptylamino)-acetylamino]-hexyloxycarbonylamino}-hexyl ester]: the Kd was found to be 491 nM.

As to `NCCCCNCC(=O)N(CCCCN)CC(=O)N[C@H](CCCCN)COC(N)=O` [Compound AY, Carbamic acid 6-amino-2-(2-{(4-amino-butyl)-[2-(4-amino-butylamino)-acetyl]-amino}-acetylamino)-hexyl ester], the Kd amounted to 403 nM.

As to `NCCCC[C@H](N)COC(=O)N[C@@H](CCCCN)COC(=O)N[C@H](CCCCN)COC(N)=O` [Compound AJ, Carbamic acid 6-amino-2-[6-amino-2-(2,6-diamino-hexyloxycarbonylamino)-hexyloxycarbonylamino]-hexyl ester], the Kd worked out at 4310 nM.

On to `NCCCC[C@@H](COC(N)=O)NC(=O)OC[C@H](CCCCN)NC(=O)[C@@H](N)CCCCN` (stereo in doubt) [Compound CL, Carbamic acid 6-amino-2-[6-amino-2-(2,6-diamino-hexanoylamino)-hexyloxycarbonylamino]-hexyl ester], for which the Kd was 130 nM.

With `NCCCCCCCN(CC(=O)N[C@@H](CCCCN)COC(N)=O)C(=O)[C@H](N)CCCCN` [Compound DN, Carbamic acid 6-amino-2-{2-[(7-amino-heptyl)-(2,6-diamino-hexanoyl)-amino]-acetylamino}-hexyl ester], the Kd came out at 678 nM.

As to `NCCCC[C@H](COC(N)=O)NC(=O)OC[C@@H](CCCCN)NC(=O)[C@@H](N)CCCCN` [Compound AC, Carbamic acid 6-amino-2-[6-amino-2-(2,6-diamino-hexanoylamino)-hexyloxycarbonylamino]-hexyl ester], the Kd came to 215 nM.

In the case of `NCCCCCCCNCC(=O)N[C@@H](CCCCN)COC(=O)N[C@@H](CCCCN)COC(N)=O` [Compound CO, Carbamic acid 6-amino-2-{6-amino-2-[2-(7-amino-heptylamino)-acetylamino]-hexyloxycarbonylamino}-hexyl ester], the Kd amounted to 147 nM.

Consider `NCCCC[C@H](N)COC(=O)N[C@@H](CCCCN)C(=O)N[C@H](CCCCN)COC(N)=O` (stereo in doubt) [Compound BT, Carbamic acid 6-amino-2-[6-amino-2-(2,6-diamino-hexyloxycarbonylamino)-hexanoylamino]-hexyl ester], for which the Kd was 202 nM.
